Laboratory results published in patent US11035008B2, “Biomarkers for cancer” (BERGENBIO ASA, priority 2015, dated 2021).

Tests used:
SLFN11 = SLFN11 in CD33-positive cells, MOLM13 systemic xenograft model, flow cytometry; assay type: in vivo, mice; settings: bone marrows, 50 mg/kg for 4 days
Method: Material from an in vivo MOLM13 systemic model was also evaluated by flow cytometry. Expression of the previously evaluated biomarkers was examined in cells isolated from bone marrows and spleens of animals with systemic AML disease (MOLM13, inoculated for 7 days prior to treatment) treated with BGB324 at 50 mg/kg for 4 days. The spleens analysed were from the same study that was analysed by microarray, as mentioned above. The bone marrows were from an identical study that was done at a later time point to get more material for flow analyses.
Cells isolated from spleens and bone marrows were assessed for phosphorylation of Erk, PLCγ1 and Akt, and expression of PHGDH and SLFN11. The samples were also co-stained with CD33, and biomarker expression was only evaluated in CD33-positive cells.

pAkt(S473) = pAkt(S473) by flow cytometry in MOLM13 cells (Example 1); assay type: cell-based, human
Method: (§1) Staining of Cells for Flow Cytometry, General Protocol: • Live cells were centrifuged at 300 G for 5 minutes, washed once with PBS and centrifuged again. Cells were then fixed in 4% PFA in PBS for 10 minutes at 37° C., and resuspended in PBS. Unless processed immediately, samples were at this point stored in PBS at 4° C. (up to three weeks) or at −80° C. (for long-term storage). If intracellular epitopes were stained, cells were permebealized in 90% MeOH for 30 minutes on ice. Unless processed immediately, samples were also be stored in 90% MeOH at −20° C. for up to two months. • Further staining procedure (permebealized or non-permebealized cells): • Cells were washed 1× in PBS and blocked in blocking buffer; either PBS+0.5% BSA or PBS+1:1000 Octagam (5 mg/ml) for 15 minutes at room temperature. Thereafter, cells were incubated with primary AB at the indicated dilutions in incubation buffer (IB, PBS+0.5% BSA) for 1 hour at room temperature. Cells were then washed 3× with IB and incubated with secondary AB (conjugated to a fluorescent flurophore) at 1:1000 dilution in IB for 30 minutes at room temperature. Finally, cells were washed 3× in IB and resuspended in PBS. Cells were analyzed immediately, or stored for up to 24 hours at 4° C. before analysis. • Analysis of cells was done on a BD LSR Fortessa or a BD C6 Accuri flow cytometer, and further processing was done using FlowJo v.7.6. • All incubation steps (but not storage) were done on a spinning wheel or gentle shaker.
MOLM13 cells were treated with BGB324 at different doses, and phosphorylation of Akt at the S473 phosphorylation site was assessed using a pAkt (S473) XP antibody from Cell Signaling Technology (#4060, BGB #109). Due to previous experience using this AB for flow, the AB was not titrated, but used at the concentration recommended by the manufacturer for flow cytometry.
MOLM13 cells were cultured in starvation medium (RPMI, 0.1% FBS) over night, pre-treated with BGB324 at 3 μM for 20 minutes, and thereafter stimulated with 10% FBS for 20 minutes (+/−BGB324) to induce Akt phosphorylation. […]

pAxl (Y779) = test: pAxl(Y779) in AML cell panel, short term treatment, flow cytometry; assay type: cell-based, human; settings: 1 hour
Method: as §1
(§2) The diversity of AML cells and their responses was investigated using a panel of AML cell lines and assessing their responses after BGB324-treatment.
When investigating phospho-markers, the cells were starved overnight in the appropriate growth medium containing 0.1% FBS, pre-treated with BGB324 at 0.5 and 1 μM for one hour, and stimulated with 10% FBS for 20 minutes (to induce phosphorylation, with BGB324 present). Cells were then fixed and stained for flow cytometric analyses.

Kasumi cells = test: IC50 of BGB324 by resazurin assay, Kasumi; assay type: cell-based; settings: Homo sapiens, Kasumi (non-responder)
From the text: as §2

PHGDH = PHGDH by western blot in MOLM13 cells treated in vitro; assay type: cell-based, human
Method: Western Blot, General Protocol: • For western blot analysis, cells were lysed on ice using NP-40 lysis buffer with protease- and phosphatase inhibitors. Total protein concentration in lysates was measured using a BCA protein assay kit following the manufacturers instructions. 10% NuPAGE® Bis-Tris precast gels were loaded with 30-50 μg of protein in each well diluted in sample buffer and antioxidant. A 1:1 mix of MagicMark™ XP Western Protein Standard (Invitrogen) and SeeBlue® Plus 2 Pre-Stained Standard was used as protein standard. Gels were run at 50V for 20 min, then at 100V for 1 h 30 min. Blotting was done on ice for 1 h 30 min at 100V onto PVDF (pre-activated with MeOH) or nitrocellulose membranes. Membranes were washed in TBS-0.1% Tween-20 (TBS-T), and blocked in TBS-T 5% BSA for at least 1 h at RT. Primary ABs were added at 1:1000 in TBS-T 5% BSA (rabbit-anti-actin AB was added at 1:2000) in TBS-T 5% BSA, and membranes were incubated over night at 4° C. Membranes were then washed 3× in TBS-T, and incubated in HRP-conjugated secondary ABs at 1:5000 dilution in TBS-T 5% milk for 45 min at RT. Membranes were developed for 1 min using ECL-reagents and imaged with chemiluminescence using a Molecular Imager ChemiDoc™ XRS (BioRad). • All incubation- and washing steps were done on a roller.

Nc1nc(Nc2ccc3c(c2)CC[C@@H](N2CCCC2)CC3)nn1-c1cc2c(nn1)-c1ccccc1CCC2 [BGB324, 1-(6,7-dihydro-5H-benzo[6,7]cyclohepta[1,2-c]pyridazin-3-yl)-N3-((7-(S)-pyrrolidin-1-yl)-6,7,8,9-tetrahydro-5H-benzo[7]annulene-2-yl)-1H-1,2,4-triazole-3,5-diamine]
SLFN11 expression (SLFN11): significant reduction
pAkt in shAxl-expressing cells (pAkt(S473); MOLM13 shAxl (Axl knockdown), 0.1-3 μM): inhibition of pAkt was also seen
Akt(S473) phosphorylation (pAkt(S473); MOLM13 starved over night, 3 μM, presence and absence of 10% FBS): potently inhibited
pAkt dose-response (pAkt(S473); MOLM13 wt, shLuc, shAxl, 0.1-3 μM, starved and non-starved): potent dose-dependent reduction of pAkt
pAxl (pAxl (Y779); Kasumi, 0.5 and 1 μM): no response to treatment
phosphorylation of Axl at Y779 (pAxl (Y779); MOLM13, 0.5 and 1 μM): significantly reduced
phosphorylation of Axl at Y779 (pAxl (Y779); Mv4-11, 0.5 and 1 μM): significantly reduced
pAxl (pAxl (Y779); OCI-M1, highest treatment dose): slight (but significant) reduction of pAxl
IC50 (Kasumi cells): 1200 nM
PHGDH by western blot (PHGDH; 2 uM, time-course of 3-7 hours): did not see reduction of PHGDH
PHGDH by western blot (PHGDH; 0.3 and 0.6 uM, three days): did not see reduction of PHGDH
